Assay [1] has as its system HBV DNA. Briefly: HBV in vitro test: HBV DNA in HepG2.2.15 culture supernatant by real time-qPCR. In kind it is cell-based, Hepatitis B Virus (HBV). The protocol:
(§1) The content of HBV DNA in HepG2. 2. 15 cell culture supernatant was detected by a real-time quantitative qPCR assay (real time-qPCR), and the content of HBV surface antigen was detected by enzyme-linked immunosorbent assay (ELISA), the compound EC50 value was used as an index to evaluate the inhibitory effect of the compound on HBV.
(§2) 3.1. HepG2. 2. 15 cells (4×10^4 cells/well) was plated into a 96-well plate and cultured overnight at 37° C., 5% CO2.
(§3) 3.2. The next day, the compound was diluted to 8 concentrations, 3-folds gradients dilution. The compound of different gradients were added into the culture well, double duplicated the wells. The final concentration of the DMSO was 0.5% in the culture solution. 10 μM ETV was used as 100% inhibition control; 0.5% of DMSO was used as 0% inhibition control.
(§4) 3.3. On the fifth day, the culture solution was replaced by fresh culture solution containing the compound.
(§5) 3.4. On the eighth day, the culture solution in the culture well was collected, and the content of hepatitis B virus S antigen was measured by ELISA with partial samples; and still partial samples was taken for extraction of DNA using high-throughput DNA purification kit (Qiagen-51162).
3.6. 15 μL reaction mixture was added into each well of the 96-well PCR plate, then in each well was added 10 μL sample DNA or standard product of HBV DNA.
3.7. The qPCR plate was sealed with optical sealing film, centrifuged at 1500 rpm for 2 minutes, and then the HBV copy number of each sample was quantitatively detected by fluorescence quantitative qPCR. The operation procedure of qPCR is as follows
Calculation of the Inhibition Percentage % Inh.=(1−value in the sample/DMSO control group value)×100%.
The dose-response curves was fitted by GraphPad Prism software, and the 50% inhibited concentration EC50 value of the compound against HBV was calculated.
(In general: In qPCR the cycle at which signal appears reflects the starting amount.)

Assay [2] deals with HBV surface antigen (HBsAg). Put plainly: HBV in vitro test: HBV surface antigen in HepG2.2.15 culture supernatant by ELISA. In kind it is cell-based, Hepatitis B Virus (HBV). As for the experimental part: as §1, §2, §3, §4, §5
3.9. Content determination of hepatitis B virus S antigen measured by ELISA
50 μL sample and standard sample were taken and added into the reaction plate respectively, then 50 μL enzyme conjugate was added into each of the wells, shaked to mix well, then kept in warm bath at 37° C. for 60 min, and the plate was washed with cleansing solution for 5 times, 50 μL luminescent substrate was added into each wells, mixed well and reacted at r.t. for 10 min in the dark, the chemiluminescence intensity was finally detected with ELISA. The inhibition percentage of each compound was calculated by the following formula: inhibition rate (%)=(1−value in sample/DMSO control group value)×100%. The dose-response curves was fitted by GraphPad Prism software, and the 50% inhibited concentration EC50 value of the compound against HBV was calculated.
On the technique in general: In an ELISA, binding on a coated surface is turned into a signal by an enzyme label.

The mark [3] stands for this setting: Hepatitis B virus, HepG2.2.15, HepG2. 2. 15 cell culture supernatant, collected on the eighth day, real time-qPCR, read-out: HBV-DNA experimental results EC50.
Where [4] appears, read: Hepatitis B virus, HepG2.2.15, read-out: HBsAg experimental results EC50.
The mark [5] stands for this setting: Hepatitis B virus, HepG2.2.15, read-out: HBV-DNA experimental results EC50.

Where two headings read alike, the source gives them in different places.

What is called EC50 is the concentration that produces a half-maximal response. Regarding `COc1cc2c(cc1Cl)-c1cc(=O)c(C(=O)O)cn1C(c1ccccc1)O2` (stereo not drawn) [Embodiment 1], the EC50 in assay [1] (setting [3]) came out at 11.8 nM; in assay [2] (setting [4]), 27.6 nM.
On the same counts, the results for `CC(C)(CO)COc1cc2c(cc1Cl)-c1cc(=O)c(C(=O)O)cn1C(c1ccccc1)O2` (stereo not drawn) [Embodiment 2] are 34.5 nM and 55.8 nM.
The matching figures for `COCCOc1cc2c(cc1Cl)-c1cc(=O)c(C(=O)O)cn1C(c1ccccc1)O2` (stereo not drawn) [Embodiment 3]: 27.6 nM and 47.6 nM.
On the same counts, the results for `O=C(O)c1cn2c(cc1=O)-c1cc(Cl)c(OCC(F)F)cc1OC2c1ccccc1` (stereo not drawn) [Embodiment 4] are 15 nM and 31.9 nM.
With `O=C(O)c1cn2c(cc1=O)-c1cc(Cl)c(OCCN3CCOCC3)cc1OC2c1ccccc1` (stereo not drawn) [Embodiment 5], the EC50 is 15.1 nM in assay [1] (setting [3]) and 50 nM in assay [2] (setting [4]).
On to `O=C(O)c1cn2c(cc1=O)-c1cc(Cl)c(OCCCO)cc1OC2c1ccccc1` (stereo not drawn) [Embodiment 6], for which the values for the EC50 in assay [1] (setting [3]) and in assay [2] (setting [4]) were 6.04 nM and 20.3 nM, respectively.
As to `O=C(O)c1cn2c(cc1=O)-c1cc(Cl)c(OCCO)cc1OC2c1ccccc1` (stereo not drawn) [Embodiment 7], the EC50 in assay [1] (setting [3]) turned out to be 211 nM; in assay [2] (setting [4]) it was 299 nM.
The matching figures for `O=C(O)c1cn2c(cc1=O)-c1cc(Cl)c(OCCCCCO)cc1OC2c1ccccc1` (stereo not drawn) [Embodiment 8]: 20.8 nM and 66.2 nM.
The matching figures for `C#CCOc1cc2c(cc1Cl)-c1cc(=O)c(C(=O)O)cn1C(c1ccccc1)O2` (stereo not drawn) [Embodiment 9]: 74.1 nM and 138 nM.
The matching figures for `O=C(O)c1cn2c(cc1=O)-c1cc(Cl)c(OCC(F)(F)CO)cc1OC2c1ccccc1` (stereo not drawn) [Embodiment 10]: 51 nM and 102 nM.
As for `CS(=O)(=O)CCCOc1cc2c(cc1Cl)-c1cc(=O)c(C(=O)O)cn1C(c1ccccc1)O2` (stereo not drawn) [Embodiment 11], the EC50 was 40.8 nM in assay [1] (setting [3]) and 73.9 nM in assay [2] (setting [4]).
The matching figures for `O=C(O)c1cn2c(cc1=O)-c1cc(Cl)c(OCCCN3CCCC3=O)cc1OC2c1ccccc1` (stereo not drawn) [Embodiment 12]: 78.1 nM and 213 nM.
With `COCCCOc1cc2c(cc1Cl)-c1cc(=O)c(C(=O)O)cn1C(c1nccs1)O2` (stereo not drawn) [Embodiment 14], the EC50 in assay [1] (setting [5]) and in assay [2] (setting [4]) was 6.88 nM throughout.
Take `COCCCOc1cc2c(cc1Cl)-c1cc(=O)c(C(=O)O)cn1C(c1ccccc1Cl)O2` (stereo not drawn) [Embodiment 15]: in assay [1] (setting [3]), the EC50 is 8.2 nM.
With `COCCCOc1cc2c(cc1Cl)-c1cc(=O)c(C(=O)O)cn1C(c1cccc(Cl)c1)O2` (stereo not drawn) [Embodiment 16], the EC50 in assay [1] (setting [5]) and in assay [2] (setting [4]) was 45.3 nM in each case.
Turning to `COCCCOc1cc2c(cc1Cl)-c1cc(=O)c(C(=O)O)cn1C(c1ccc(Cl)cc1)O2` (stereo not drawn) [Embodiment 17], the EC50 in assay [1] (setting [5]) and in assay [2] (setting [4]) was 254 nM each time.
`COCCCOc1cc2c(cc1Cl)-c1cc(=O)c(C(=O)O)cn1C(c1ccc(F)cc1)O2` (stereo not drawn) [Embodiment 18]: the results for the EC50 in assay [1] (setting [3]) and in assay [2] (setting [4]) were 40.8 nM and 73.7 nM, respectively.
As for `COCCCOc1cc2c(cc1Cl)-c1cc(=O)c(C(=O)O)cn1C(c1ccccc1F)O2` (stereo not drawn) [Embodiment 19], the EC50 turned out to be 3.88 nM in assay [1] (setting [3]) and 20.9 nM in assay [2] (setting [4]).
The matching figures for `COCCCOc1cc2c(cc1Cl)-c1cc(=O)c(C(=O)O)cn1C(c1cccc(F)c1)O2` (stereo not drawn) [Embodiment 20]: 11 nM and 22.5 nM.
On the same counts, the results for `COCCCOc1cc2c(cc1Cl)-c1cc(=O)c(C(=O)O)cn1C(c1ccccc1C)O2` (stereo not drawn) [Embodiment 21] are 7.12 nM and 16.3 nM.
On the same counts, the results for `COCCCOc1cc2c(cc1Cl)-c1cc(=O)c(C(=O)O)cn1C(c1cccc(C)c1)O2` (stereo not drawn) [Embodiment 22] are 20.6 nM and 38.2 nM.
Take `COCCCOc1cc2c(cc1Cl)-c1cc(=O)c(C(=O)O)cn1C(c1ccc(C)cc1)O2` (stereo not drawn) [Embodiment 23]: the EC50 stood at 85.9 nM in assay [1] (setting [3]) and 127 nM in assay [2] (setting [4]).
With `COCCCOc1cc2c(cc1Cl)-c1cc(=O)c(C(=O)O)cn1C(c1cc(F)cc(OC)c1)O2` (stereo not drawn) [Embodiment 24], the results for the EC50 in assay [1] (setting [3]) and in assay [2] (setting [4]) were 59.3 nM and 35.5 nM, respectively.
On to `COCCCOc1cc2c(cc1Cl)-c1cc(=O)c(C(=O)O)cn1C(c1cc(F)ccc1OC)O2` (stereo not drawn) [Embodiment 25], for which the EC50 in assay [1] (setting [3]) stood at 18.7 nM; in assay [2] (setting [4]), 35.9 nM.
For the molecule `COCCCOc1cc2c(cc1Cl)-c1cc(=O)c(C(=O)O)cn1C(c1cc(OC)ccc1F)O2` (stereo not drawn) [Embodiment 26], the EC50 in assay [1] (setting [3]) is 152 nM; in assay [2] (setting [4]) it was 101 nM.
On the same counts, the results for `COCCCOc1cc2c(cc1Cl)-c1cc(=O)c(C(=O)O)cn1C(c1c(F)cccc1Cl)O2` (stereo not drawn) [Embodiment 27] are 23.6 nM and 39.1 nM.
On the same counts, the results for `COCCCOc1cc2c(cc1Cl)-c1cc(=O)c(C(=O)O)cn1C(c1nc(C)c(C)s1)O2` (stereo not drawn) [Embodiment 28] are 278 nM and 152 nM.
On the same counts, the results for `COCCCOc1cc2c(cc1Cl)-c1cc(=O)c(C(=O)O)cn1C(c1c(F)cccc1F)O2` (stereo not drawn) [Embodiment 29] are 4.11 nM and 12.2 nM.
For the molecule `COCCCOc1cc2c(cc1Cl)-c1cc(=O)c(C(=O)O)cn1C(c1cc(F)cc(F)c1)O2` (stereo not drawn) [Embodiment 30], the EC50 was found to be 18.5 nM in assay [1] (setting [3]) and 28.2 nM in assay [2] (setting [4]).
On the same counts, the results for `COCCCOc1cc2c(cc1Cl)-c1cc(=O)c(C(=O)O)cn1C(c1cccc(F)c1F)O2` (stereo not drawn) [Embodiment 31] are 90.5 nM and 203 nM.
On the same counts, the results for `COCCCOc1cc2c(cc1Cl)-c1cc(=O)c(C(=O)O)cn1C(c1cc(F)ccc1F)O2` (stereo not drawn) [Embodiment 32] are 35.2 nM and 71 nM.
On the same counts, the results for `COCCCOc1cc2c(cc1Cl)-c1cc(=O)c(C(=O)O)cn1C(c1ccc(F)cc1F)O2` (stereo not drawn) [Embodiment 33] are 12.6 nM and 10.2 nM.
As for `COCCCOc1cc2c(cc1Cl)-c1cc(=O)c(C(=O)O)cn1C(c1ccc(OC)cc1F)O2` (stereo not drawn) [Embodiment 34], the EC50 was determined as 21.3 nM in assay [1] (setting [3]) and 29.6 nM in assay [2] (setting [4]).
As to `COCCCOc1cc2c(cc1Cl)-c1cc(=O)c(C(=O)O)cn1C(c1cnsc1C)O2` (stereo not drawn) [Embodiment 35], the EC50 turned out to be 25.1 nM in assay [1] (HepG2. 2. 15 cell culture supernatant, collected on the eighth day, real time-qPCR, read-out: HBV-DNA experimental results EC50) and 11 nM in assay [2] (HepG2. 2. 15 cell culture supernatant, collected on the eighth day, ELISA, read-out: HBsAg experimental results EC50).
As for `COCCCOc1cc2c(cc1Cl)-c1cc(=O)c(C(=O)O)cn1C(c1cnsc1)O2` (stereo not drawn) [Embodiment 37], the EC50 is 10.6 nM in assay [1] (setting [3]) and 26.6 nM in assay [2] (setting [4]).
On the same counts, the results for `COCCCOc1cc2c(cc1Cl)-c1cc(=O)c(C(=O)O)cn1C(c1cncs1)O2` (stereo not drawn) [Embodiment 38] are 20.4 nM and 12.3 nM.
On the same counts, the results for `COCCCOc1cc2c(cc1Cl)-c1cc(=O)c(C(=O)O)cn1C(c1ncc(C)s1)O2` (stereo not drawn) [Embodiment 41] are 17.8 nM and 58 nM.
The matching figures for `Cc1csc(C2Oc3cc(OCC4CC4)c(Cl)cc3-c3cc(=O)c(C(=O)O)cn32)n1` (stereo not drawn) [Embodiment 42]: 2.19 nM and 7.88 nM.
As for `COCCCOc1cc2c(cc1OC)-c1cc(=O)c(C(=O)O)cn1C(c1cscn1)O2` (stereo not drawn) [Embodiment 43], the EC50 in assay [1] (setting [3]) amounted to 19.4 nM; in assay [2] (setting [4]), 15.4 nM.
The matching figures for `O=C(O)c1cn2c(cc1=O)-c1cc(Cl)c(OCC3CC3)cc1OC2c1ncc(Cl)s1` (stereo not drawn) [Embodiment 44]: 129 nM and 212 nM.
The matching figures for `COCCCOc1cc2c(cc1Cl)-c1cc(=O)c(C(=O)O)cn1C(c1csc(Cl)c1Cl)O2` (stereo not drawn) [Embodiment 48]: over 1000 nM and 103 nM.
